pIC50: −log10 of the molar value. Where a SMILES comes first, the peptide text is derived from it. Bridges are numbered along the chain shown (N, C = ends). [ ]: non-standard residue; d: D form. The star is where a group is joined. Bip = N[C@@H](Cc1ccc(-c2ccccc2)cc1)C(=O)O; Cha = N[C@@H](CC1CCCCC1)C(=O)O; Carboxymethyl = O=C(O)C*; Orn = NCCC[C@H](N)C(=O)O; Dab = NCC[C@H](N)C(=O)O; Dap = NC[C@H](N)C(=O)O

Experimental findings from patent US20250163104A1, “MACROCYCLIC IMMUNOMODULATORS” (priority 2021, published 2025) are described below.

The target of this assay is T1, human PD-1 / PD-L1-Ig binding on Jurkat cell line over-expressing human PD-1 (Jurkat-PD-1) (Homo sapiens, UniProt Q15116).
T1 construct: expressed in transfected cells; host or cells: Jurkat
T1 sequence (Q15116 25-288): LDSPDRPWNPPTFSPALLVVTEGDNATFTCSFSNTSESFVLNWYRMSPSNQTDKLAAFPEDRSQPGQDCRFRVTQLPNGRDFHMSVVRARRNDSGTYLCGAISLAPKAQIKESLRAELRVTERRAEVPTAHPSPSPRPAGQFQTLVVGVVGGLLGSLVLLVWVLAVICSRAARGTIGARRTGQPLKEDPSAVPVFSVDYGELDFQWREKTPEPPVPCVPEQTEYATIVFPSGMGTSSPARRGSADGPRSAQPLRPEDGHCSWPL
The assay is described as follows: Jurkat-PD-1 Cell Binding High-Content Screening Assay (CBA). Conditions: Jurkat-PD-1 cells, PE-labeled PD-L1-Ig 20 nM final; read-out: Jurkat HPD1_PDL1 IC50. The class given is cell-based. The method in brief: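 Jurkat cells over-expressing human PD-1, in DMEM/10% FCS, pre-incubated with compound 2 h at 37° C. PE-labeled human PD-L1-Ig (20 nM final) added for 1 h; cells fixed in paraformaldehyde with Hoechst 33342 nuclear stain, washed, and bound fluorescence quantified by high-content imaging.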
For `CC(C)C[C@@H]1NC(=O)[C@H](CCCCN)NC(=O)[C@@H](CC(C)C)NC(=O)[C@H](CCN)NC(=O)[C@H](Cc2cnc[nH]2)NC(=O)[C@H](Cc2ccc(-c3ccccc3)cc2)NC(=O)[C@H](C(C)C)NC(=O)[C@H](Cc2c[nH]c3ccccc23)NC(=O)[C@H](CC(=O)O)NC(=O)[C@H](Cc2ccc(O)cc2)NC(=O)[C@H](CC(N)=O)NC(=O)CSC[C@@H](C(=O)N[C@@H](C)C(N)=O)NC(=O)[C@H](CO)NC(=O)[C@H](C(C)C)NC1=O` [Compound 1138] ({CH2CO}-NYDWV[Bip]H[Dab][dL]KLVSCA-NH2; thioether N-14), the pIC50 (as a rule, −log10 of the IC50, conventionally taken in molar units) was 7.71.

On to `CC(C)C[C@@H]1NC(=O)[C@H](CCCCN)NC(=O)[C@@H](CC(C)C)NC(=O)[C@H](CCN)NC(=O)[C@H](Cc2cnc[nH]2)NC(=O)[C@H](Cc2ccc(-c3ccccc3)cc2)NC(=O)[C@H](C(C)C)NC(=O)[C@H](Cc2c[nH]c3ccccc23)NC(=O)[C@H](CC(=O)O)NC(=O)[C@H](Cc2ccc(O)cc2)NC(=O)[C@H](CC(N)=O)NC(=O)CSC[C@@H](C(=O)NCC(N)=O)NC(=O)[C@H](CO)NC(=O)[C@H](C(C)C)NC1=O` [Compound 1139] ({CH2CO}-NYDWV[Bip]H[Dab][dL]KLVSCG-NH2; thioether N-14), for which the pIC50 is 7.35.

For the compound `CC(C)C[C@@H]1NC(=O)[C@H](CCCCN)NC(=O)[C@@H](CC(C)C)NC(=O)[C@H](CCN)NC(=O)[C@H](Cc2cnc[nH]2)NC(=O)[C@H](Cc2ccc(-c3ccccc3)cc2)NC(=O)[C@H](C(C)C)NC(=O)[C@H](Cc2c[nH]c3ccccc23)NC(=O)[C@H](CC(=O)O)NC(=O)[C@H](Cc2ccc(O)cc2)NC(=O)[C@H](CC(N)=O)NC(=O)CSC[C@@H](C(=O)NCC(N)=O)NC(=O)[C@H]([C@@H](C)O)NC(=O)[C@H](C(C)C)NC1=O` [Compound 1140] ({CH2CO}-NYDWV[Bip]H[Dab][dL]KLVTCG-NH2; thioether N-14), the pIC50 is 7.24.

Take `CC[C@H](C)[C@@H]1NC(=O)[C@H](Cc2ccc(-c3ccccc3)cc2)NC(=O)[C@H](C(C)C)NC(=O)[C@H](Cc2c[nH]c3ccccc23)NC(=O)[C@H](CC(=O)O)NC(=O)[C@H](Cc2ccc(O)cc2)NC(=O)[C@H](CN)NC(=O)CSC[C@@H](C(=O)N[C@@H](C)C(N)=O)NC(=O)[C@H]([C@@H](C)O)NC(=O)[C@H](C(C)C)NC(=O)[C@H](CC(C)C)NC(=O)[C@H](CCCNC(=N)N)NC(=O)[C@@H](CC(C)C)NC(=O)[C@H](CCCN)NC1=O` [Compound 1141] ({CH2CO}-[Dap]YDWV[Bip]I[Orn][dL]RLVTCA-NH2; thioether N-14): the pIC50 was 7.51.

On to `CC[C@H](C)[C@@H]1NC(=O)[C@H](Cc2ccc(-c3ccccc3)cc2)NC(=O)[C@H](C(C)C)NC(=O)[C@H](Cc2c[nH]c3ccccc23)NC(=O)[C@H](CC(=O)O)NC(=O)[C@H](Cc2ccc(O)cc2)NC(=O)[C@H](Cc2ccc(OCC(=O)O)cc2)NC(=O)CSC[C@@H](C(=O)N[C@@H](C)C(N)=O)NC(=O)[C@H]([C@@H](C)O)NC(=O)[C@H](C(C)C)NC(=O)[C@H](CC(C)C)NC(=O)[C@H](CCCNC(=N)N)NC(=O)[C@@H](CC(C)C)NC(=O)[C@H](CCCN)NC1=O` [Compound 1142] ({CH2CO}-Y(Carboxymethyl)YDWV[Bip]I[Orn][dL]RLVTCA-NH2; thioether N-14), for which the pIC50 was 7.71.

For `CC[C@H](C)[C@@H]1NC(=O)[C@H](Cc2ccc(-c3ccccc3)cc2)NC(=O)[C@H](C(C)C)NC(=O)[C@H](Cc2c[nH]c3ccccc23)NC(=O)[C@H](CC(=O)O)NC(=O)[C@H](Cc2ccc(O)cc2)NC(=O)[C@H](CC(N)=O)NC(=O)CSC[C@@H](C(=O)N[C@@H](C)C(N)=O)NC(=O)[C@H]([C@@H](C)O)NC(=O)[C@H](C(C)C)NC(=O)[C@H](CC(C)C)NC(=O)[C@H](CCCNC(=N)N)NC(=O)[C@@H](CC(C)C)NC(=O)[C@H](CCCN)NC1=O` [Compound 1143] ({CH2CO}-NYDWV[Bip]I[Orn][dL]RLVTCA-NH2; thioether N-14), the pIC50 was 7.80.

Turning to `CC[C@H](C)[C@@H]1NC(=O)[C@H](Cc2ccc(-c3ccccc3)cc2)NC(=O)[C@H](C(C)C)NC(=O)[C@H](Cc2c[nH]c3ccccc23)NC(=O)[C@H](CC(=O)O)NC(=O)[C@H](Cc2ccc(O)cc2)NC(=O)[C@H](Cc2ccccc2)NC(=O)CSC[C@@H](C(=O)N[C@@H](C)C(N)=O)NC(=O)[C@H]([C@@H](C)O)NC(=O)[C@H](C(C)C)NC(=O)[C@H](CC(C)C)NC(=O)[C@H](CCCNC(=N)N)NC(=O)[C@@H](CC(C)C)NC(=O)[C@H](CCCN)NC1=O` [Compound 1144] ({CH2CO}-FYDWV[Bip]I[Orn][dL]RLVTCA-NH2; thioether N-14), the pIC50 was 7.72.

Regarding `CC[C@H](C)[C@@H]1NC(=O)[C@H](Cc2ccc(-c3ccccc3)cc2)NC(=O)[C@H](C(C)C)NC(=O)[C@H](Cc2c[nH]c3ccccc23)NC(=O)[C@H](CC(=O)O)NC(=O)[C@H](Cc2ccc(O)cc2)NC(=O)[C@H](CN)NC(=O)CSC[C@@H](C(=O)N[C@@H](C)C(N)=O)NC(=O)[C@H]([C@@H](C)O)NC(=O)[C@H](C(C)C)NC(=O)[C@H](CC2CCCCC2)NC(=O)[C@H](CCCNC(=N)N)NC(=O)[C@@H](CC(C)C)NC(=O)[C@H](CCCN)NC1=O` [Compound 1145] ({CH2CO}-[Dap]YDWV[Bip]I[Orn][dL]R[Cha]VTCA-NH2; thioether N-14), the pIC50 is 8.06.

`CC[C@H](C)[C@@H]1NC(=O)[C@H](Cc2ccc(-c3ccccc3)cc2)NC(=O)[C@H](C(C)C)NC(=O)[C@H](Cc2c[nH]c3ccccc23)NC(=O)[C@H](CC(=O)O)NC(=O)[C@H](Cc2ccc(O)cc2)NC(=O)[C@H](Cc2ccc(OCC(=O)O)cc2)NC(=O)CSC[C@@H](C(=O)N[C@@H](C)C(N)=O)NC(=O)[C@H]([C@@H](C)O)NC(=O)[C@H](C(C)C)NC(=O)[C@H](CC2CCCCC2)NC(=O)[C@H](CCCNC(=N)N)NC(=O)[C@@H](CC(C)C)NC(=O)[C@H](CCCN)NC1=O` [Compound 1146] ({CH2CO}-Y(Carboxymethyl)YDWV[Bip]I[Orn][dL]R[Cha]VTCA-NH2; thioether N-14): the pIC50 is 7.37.

Take `CC[C@H](C)[C@@H]1NC(=O)[C@H](Cc2ccc(-c3ccccc3)cc2)NC(=O)[C@H](C(C)C)NC(=O)[C@H](Cc2c[nH]c3ccccc23)NC(=O)[C@H](CC(=O)O)NC(=O)[C@H](Cc2ccc(O)cc2)NC(=O)[C@H](CC(N)=O)NC(=O)CSC[C@@H](C(=O)N[C@@H](C)C(N)=O)NC(=O)[C@H]([C@@H](C)O)NC(=O)[C@H](C(C)C)NC(=O)[C@H](CC2CCCCC2)NC(=O)[C@H](CCCNC(=N)N)NC(=O)[C@@H](CC(C)C)NC(=O)[C@H](CCCN)NC1=O` [Compound 1147] ({CH2CO}-NYDWV[Bip]I[Orn][dL]R[Cha]VTCA-NH2; thioether N-14): the pIC50 was 7.64.

On to `CC[C@H](C)[C@@H]1NC(=O)[C@H](Cc2ccc(-c3ccccc3)cc2)NC(=O)[C@H](C(C)C)NC(=O)[C@H](Cc2c[nH]c3ccccc23)NC(=O)[C@H](CC(=O)O)NC(=O)[C@H](Cc2ccc(O)cc2)NC(=O)[C@H](Cc2ccccc2)NC(=O)CSC[C@@H](C(=O)N[C@@H](C)C(N)=O)NC(=O)[C@H]([C@@H](C)O)NC(=O)[C@H](C(C)C)NC(=O)[C@H](CC2CCCCC2)NC(=O)[C@H](CCCNC(=N)N)NC(=O)[C@@H](CC(C)C)NC(=O)[C@H](CCCN)NC1=O` [Compound 1148] ({CH2CO}-FYDWV[Bip]I[Orn][dL]R[Cha]VTCA-NH2; thioether N-14), for which the pIC50 is 7.29.
